Measurements as given in patent US11034678B2, “Diacylglycerol acyl transferase 2 inhibitors” (Pfizer Inc., priority 2016, dated 2021).

Test: Metabolic clearance in HLM (hepatic clearance profile, Clint, app)
Type: in vitro ADME, human

SMILES	CIint, app in HLM
CCOc1ccccc1O[C@@H]1CCCN(c2ncc(C(=O)NC(C)(C)CO)cn2)C1 [WO2015140658 Example 19.21]	121 µL/min/mg
CCOc1cccnc1Oc1cncc(-c2ncc(C(=O)NC(C)(C)CO)cn2)c1 [Example 5, 2-(5-((3-Ethoxypyridin-2-yl)oxy)pyridin-3-yl)-N-(1-hydroxy-2-methylpropan-2-yl)pyrimidine-5-carboxamide]	18 µL/min/mg
